Experimental data published in patent US12109207B2, “Methods of using 4(1H)-quinolone derivatives” (Academia Sinica, priority 2019, dated 2024).
Where two headings read alike, the source gives them in different places.

Assays:
H1975 cells = assay: Cell cytotoxicity assay (MTS), H1975; assay type: cell-based, human; conditions: H1975 cells, 72 h, MTS, read-out: IC50
Procedure: (§1) Cells were seeded into the wells of 96-well plates (2000 cells/well). After an overnight culture, the cells were treated with different concentrations of a compound for 72 h. The CellTiter 96 AQueous one-solution cell proliferation assay (MTS) reagent was used to determine cytotoxicity. After treatment with a compound, 20 μL of the MTS reagent was added to each well and the plates were incubated at 37° C. for 1-4 h. Next, the absorbance at 490 nm of the culture medium in each well was determined using a VersaMax microplate reader (Molecular Devices).

PC9 = assay: Cell cytotoxicity assay (MTS), PC9; assay type: cell-based; conditions: Homo sapiens, PC-9, PC9, 72 h
Procedure: as §1

Hs578t = assay: Cell cytotoxicity assay (MTS), Hs578t; assay type: cell-based; conditions: Homo sapiens, Hs-578T, 72 h
Procedure: as §1

MDA-MB-231 = assay: Cell cytotoxicity assay (MTS), MDA-MB-231; assay type: cell-based; conditions: Homo sapiens, MDA-MB-231, 72 h
Procedure: as §1

82T = assay: Cell cytotoxicity assay (MTS), 82T; assay type: cell-based; conditions: Homo sapiens, 72 h
Procedure: as §1

SKOV-3 = assay: Cell cytotoxicity assay (MTS), SKOV-3; assay type: cell-based; conditions: Homo sapiens, SK-OV-3
Procedure: as §1

IGR-OV1 = assay: Cell cytotoxicity assay (MTS), IGR-OV1; assay type: cell-based; conditions: Homo sapiens, IGROV-1
Procedure: as §1

OECM1 = assay: Cell cytotoxicity assay (MTS), OECM1; assay type: cell-based; conditions: Homo sapiens
Procedure: as §1

HCT116 = assay: Cell cytotoxicity assay (MTS), HCT116; assay type: cell-based; conditions: Homo sapiens, HCT-116
Procedure: as §1

Du-145 = assay: Cell cytotoxicity assay (MTS), Du-145; assay type: cell-based; conditions: Homo sapiens
Procedure: as §1

PC-3 = assay: Cell cytotoxicity assay (MTS), PC-3; assay type: cell-based; conditions: Homo sapiens
Procedure: as §1

Molt4 = assay: Cell cytotoxicity assay (MTS), Molt4; assay type: cell-based; conditions: Homo sapiens, MOLT-4
Procedure: as §1

CCRF-CEM = assay: Cell cytotoxicity assay (MTS), CCRF-CEM; assay type: cell-based; conditions: Homo sapiens
Procedure: as §1

[1] = test system: normal bronchial epithelial (NBE) cells; assay: Cell cytotoxicity assay (MTS), normal bronchial epithelial cells; assay type: cell-based; conditions: Homo sapiens, normal cell line NBE (printed NEB in Table 2)
Procedure: as §1

CEM/VBL = assay: Cell cytotoxicity assay (MTS), CEM/VBL; assay type: cell-based, human; conditions: CEM/VBL vs CCRF-CEM
Procedure: as §1

H1975 xenograft tumor = H1975 xenograft tumor model; assay type: in vivo, BALB/c nude mice; conditions: day 25
Procedure: Using the H1975, MDA-MB-231, and KBtax xenograft models, tumors were established after inoculation into the right flanks of 6-week-old BALB/c nude mice (NARLabs, Taipei, Taiwan). After establishment of the tumors, vehicle and test compounds, which had been dissolved in DMSO, were each injected intraperitoneally into a separate group of animals three times per week. The body mass of each animal and tumor volumes were measured before each drug delivery. Tumor volume was calculated as 0.5W^2L (with W being the width of the smaller diameter and L being the length of the larger diameter). The animal experiment was carried out in accordance with the procedures and guidelines of the Institutional Animal Care and Use Committee, Institute of Biomedical Sciences, Academia Sinica.

tubulin = tubulin (Sus scrofa, UniProt P02554); assay: Binding affinity assay (surface plasmon resonance); conditions: steady-state model, 25° C.; read-out: dissociation constant (KD) for the tubulin-AS1712 complex
Procedure: Surface plasmon resonance technology was used to analyze the binding affinity of AS1712 for tubulin. A Series S Sensor Chip SA was conditioned with three consecutive 1-min injections of 1 M NaCl in 50 mM NaOH, and then 50 μg/mL biotin-tubulin (Cytoskeleton) was immobilized onto the sensor chip surface in a Biacore T200 system (GE Healthcare) to attain 3,000 resonance units. One flow cell on the chip was left free to serve as the negative control. Biocytin (Sigma Aldrich) was used to block any remaining unmodified streptavidin sites. Different concentrations of AS1712 in 10 mM HEPES, 150 mM NaCl, 3 mMEDTA, and 0.05% surfactant P20, pH 7.4 were separately injected over the sensor chip surface to measure the association and dissociation of AS1712 and tubulin at 25° C. The value of KD was calculated using the steady-state fitting mode in Biacore T200 Evaluation Software.

CL1-0 and H1975 cells [2] = assay: Colony formation assay; assay type: cell-based, human; conditions: 12.5-200 nM, 14 days
Procedure: Cells were seeded into the wells of six-well plates (1000 cells/well). After overnight culture, the cells were treated with various concentrations of AS1712 for 2 weeks. Then, the colonies in each well were fixed with 3.7% paraformaldehyde, stained with 0.04% crystal violet, and dissolved in 1 ml DMSO. The absorbance at 590 nm of each DMSO solution was read using the VersaMax microplate reader.

CL1-0 and H1975 cells [3] = assay: Pro-apoptotic protein immunoblotting, cancer cells; assay type: cell-based, human; conditions: 24 to 72 h
Procedure: The cells were harvested and lysed in RIPA buffer (20 mM Tris-HCl, 150 mM NaCl, 1 mM Na2EDTA, 1% sodium deoxycholate, 1% IGEPAL CA-630, 0.1% SDS, pH 7.5) with protease inhibitors (Roche). Protein concentration was measured by the BCA assay. For immunoprecipitation, protein extracts were incubated with mag-beads-AS1712 or mag-beads-control at 4° C. overnight and then washed five times with PBS before immunoblotting. For immunoblotting, equivalent amounts of denatured proteins were separated through SDS-PAGE gels and then transferred to PVDF membranes (Millipore), which were each blocked with 5% nonfat milk in PBS and 0.1% Tween-20 (Sigma Aldrich) for 1 h. Then each membrane was incubated with a primary antibody overnight at 4° C., followed by incubation with a horseradish peroxidase conjugated secondary antibody for 1 h at room temperature. The signal was visualized by enhanced chemiluminescence detection, and images were acquired using a BioSpectrum Imaging System (UVP).

[4] = biological target: T1, purified centrosomes and tubulin (Sus scrofa, UniProt P02554); assay: In vitro microtubule nucleation assay; assay type: biochemical, porcine
T1 construct: purchased Cytoskeleton
Procedure: Purified centrosomes were incubated with or without AS1712 and with porcine tubulin (Cytoskeleton) in 80 mM PIPES, 1 mM MgCl2, 1 mM EGTA, and 1 mM GTP, pH 6.8 for 8 min at 37° C. Microtubule asters were fixed in 1% glutaraldehyde, sedimented onto acid-treated coverslips, and finally subjected to immunofluorescence with anti-α-tubulin. The fiber lengths of the microtubule asters were measured using MetaMorph image analysis software (n=20/group).

T1 sequence (P02554 whole entry): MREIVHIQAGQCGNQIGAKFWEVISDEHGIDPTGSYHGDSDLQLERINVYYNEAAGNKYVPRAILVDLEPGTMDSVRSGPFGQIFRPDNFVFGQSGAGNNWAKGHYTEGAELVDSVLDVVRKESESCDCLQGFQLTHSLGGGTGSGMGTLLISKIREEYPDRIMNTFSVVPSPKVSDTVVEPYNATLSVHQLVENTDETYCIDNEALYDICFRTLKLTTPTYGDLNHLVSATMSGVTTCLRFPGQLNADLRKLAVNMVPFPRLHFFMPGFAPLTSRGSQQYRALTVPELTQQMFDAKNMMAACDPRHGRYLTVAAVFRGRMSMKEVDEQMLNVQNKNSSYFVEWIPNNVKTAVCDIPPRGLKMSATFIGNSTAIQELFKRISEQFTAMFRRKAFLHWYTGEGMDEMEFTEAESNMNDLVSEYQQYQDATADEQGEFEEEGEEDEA
T1 sequence (P02550 whole entry partner): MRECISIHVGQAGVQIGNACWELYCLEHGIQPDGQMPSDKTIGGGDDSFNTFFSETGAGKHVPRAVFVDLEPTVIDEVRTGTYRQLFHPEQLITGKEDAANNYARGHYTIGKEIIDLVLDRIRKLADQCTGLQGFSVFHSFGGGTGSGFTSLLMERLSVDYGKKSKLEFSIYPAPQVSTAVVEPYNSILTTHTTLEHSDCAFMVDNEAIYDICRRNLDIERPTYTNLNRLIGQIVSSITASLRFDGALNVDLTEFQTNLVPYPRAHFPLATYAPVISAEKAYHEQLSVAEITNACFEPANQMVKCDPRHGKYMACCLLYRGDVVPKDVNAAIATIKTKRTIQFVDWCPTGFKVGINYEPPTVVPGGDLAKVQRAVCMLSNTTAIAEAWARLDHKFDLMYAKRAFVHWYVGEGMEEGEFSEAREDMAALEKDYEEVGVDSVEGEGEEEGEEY
Sequence of tubulin (P02554 whole entry): as the sequence (P02554 whole entry) above
Sequence of tubulin (P02550 whole entry partner): as the sequence (P02550 whole entry partner) above

CCOC(=O)c1ccc2[nH]c(-c3ccccc3)cc(=O)c2c1 [AS1712, Ethyl 4-oxo-2-phenyl-1,4-dihydroquinoline-6-carboxylate]
IC50 (H1975 cells): 35 nM | IC50 (H1975 cells; Homo sapiens, NCI-H1975, 72 h): 33 ± 4.86 nM | IC50 (PC9): 17 ± 2.09 nM | IC50 (Hs578t): 41 ± 2.87 nM | IC50 (MDA-MB-231): 55 ± 6.83 nM | IC50 (82T): 35 ± 0.67 nM | IC50 (SKOV-3): 50 ± 0.32 nM | IC50 (IGR-OV1): 84 ± 2.07 nM | IC50 (OECM1): 52 ± 1.94 nM | IC50 (HCT116): 50 ± 0.81 nM | IC50 (Du-145): 47 ± 1.28 nM | IC50 (PC-3): 45 ± 1.77 nM | IC50 (Molt4): 38 ± 1.03 nM | IC50 (CCRF-CEM): 45 ± 0.45 nM | IC50 [1]: > 10 µM | RF, resistance factor (IC50 in resistant cell line/IC50 in parent cell line) (CEM/VBL): 0.97 | average tumor size (H1975 xenograft tumor; 4 mg/kg intraperitoneally three times a week): 871.3±106 mm^3 | average tumor size (H1975 xenograft tumor; 8 mg/kg intraperitoneally three times a week): 587.2±67 mm^3 | Kd (tubulin): 13.8 µM | colony-forming abilities (CL1-0 and H1975 cells [2]): suppressed in a dose-dependent manner | cleavage of poly(ADP-ribose) polymerase (PARP) and caspase-3 (CL1-0 and H1975 cells [3]): induced cleavage | formation of microtubule asters from the centrosome [4]: substantially inhibited
